Experimental data published in ChEMBL document CHEMBL3734713, “4-Thiazolidinone derivatives as potent antimicrobial agents: microwave-assisted synthesis, biological evaluation and docking studies” (2015).
In brackets after ≈: the same amount, converted by molar mass.

How the values were obtained:
[1] = system: Enterobacter cloacae; test: Antibacterial activity against human isolate of Enterobacter cloacae assessed as growth inhibition after 24 hrs at 37 degC by iodonitrotetrazolium chloride staining based microdilution broth assay; type: functional
[2] = system: Aspergillus ochraceus; test: Antifungal activity against Aspergillus ochraceus ATCC 12066 assessed as growth inhibition after 72 hrs at 28 degC by serial dilution method; type: functional; conditions: for MIC: Aspergillus ochraceus, ATCC 12066, 72 h
[3] = biological target: Human immunodeficiency virus type 1 reverse transcriptase (Human immunodeficiency virus 1) (UniProt Q72547); test: Inhibition of HIV1 reverse transcriptase assessed as residual enzyme activity by measuring reduction in [3H]dTTP incorporation into poly(rA)-oligo(dT) at 4 uM incubated for 15 mins by scintillation counting method relative to control
[4] = system: Staphylococcus aureus; test: Antibacterial activity against Staphylococcus aureus ATCC 6538 assessed as growth inhibition after 24 hrs at 37 degC by iodonitrotetrazolium chloride staining based microdilution broth assay; type: functional; conditions: ATCC 6538, 24 h
[5] = system: Escherichia coli; test: Antibacterial activity against Escherichia coli ATCC 35210 assessed as growth inhibition after 24 hrs at 37 degC by iodonitrotetrazolium chloride staining based microdilution broth assay; type: functional; conditions: ATCC 35210, 24 h
[6] = system: Talaromyces funiculosus; test: Antifungal activity against Penicillium funiculosum ATCC 36839 assessed as growth inhibition after 72 hrs at 28 degC by serial dilution method; type: functional; conditions: for MIC: Talaromyces funiculosus, ATCC 36839, 72 h
[7] = system: Aspergillus fumigatus; test: Antifungal activity against Aspergillus fumigatus ATCC 1022 assessed as growth inhibition after 72 hrs at 28 degC by serial dilution method; type: functional; conditions: for MIC: Aspergillus fumigatus, ATCC 1022, 72 h
[8] = system: Pseudomonas aeruginosa; test: Antibacterial activity against Pseudomonas aeruginosa ATCC 27853 assessed as growth inhibition after 24 hrs at 37 degC by iodonitrotetrazolium chloride staining based microdilution broth assay; type: functional; conditions: ATCC 27853, 24 h
[9] = system: Aspergillus versicolor; test: Antifungal activity against Aspergillus versicolor ATCC 11730 assessed as growth inhibition after 72 hrs at 28 degC by serial dilution method; type: functional; conditions: for MIC: Aspergillus versicolor, ATCC 11730, 72 h
[10] = system: Trichoderma viride; test: Antifungal activity against Trichoderma viride IAM 5061 assessed as growth inhibition after 72 hrs at 28 degC by serial dilution method; type: functional; conditions: for MIC: Trichoderma viride, IAM 5061, 72 h
[11] = system: Bacillus cereus; test: Antibacterial activity against clinical isolates of Bacillus cereus assessed as growth inhibition after 24 hrs at 37 degC by iodonitrotetrazolium chloride staining based microdilution broth assay; type: functional
[12] = system: Candida albicans; test: Antifungal activity against Candida albicans ATCC 10231 assessed as growth inhibition after 72 hrs at 28 degC by serial dilution method; type: functional; conditions: for MIC: Candida albicans, ATCC 10231, 72 h
[13] = system: Listeria monocytogenes; test: Antibacterial activity against Listeria monocytogenes NCTC 7973 assessed as growth inhibition after 24 hrs at 37 degC by iodonitrotetrazolium chloride staining based microdilution broth assay; type: functional; conditions: NCTC 7973, 24 h
[14] = system: Salmonella typhimurium; test: Antibacterial activity against Salmonella typhimurium ATCC 13311 assessed as growth inhibition after 24 hrs at 37 degC by iodonitrotetrazolium chloride staining based microdilution broth assay; type: functional, Salmonella enterica subsp. enterica serovar Typhimurium; conditions: Salmonella enterica, ATCC 13311, 24 h
[15] = system: Penicillium ochrochloron; test: Antifungal activity against Penicillium ochrochloron ATCC 9112 assessed as growth inhibition after 72 hrs at 28 degC by serial dilution method; type: functional; conditions: for MIC: Penicillium ochrochloron, ATCC 9112, 72 h
[16] = system: Aspergillus niger; test: Antifungal activity against Aspergillus niger ATCC 6275 assessed as growth inhibition after 72 hrs at 28 degC by serial dilution method; type: functional; conditions: for MIC: Aspergillus niger, ATCC 6275, 72 h
[17] = system: Micrococcus flavus; test: Antibacterial activity against Micrococcus flavus ATCC 10240 assessed as growth inhibition after 24 hrs at 37 degC by iodonitrotetrazolium chloride staining based microdilution broth assay; type: functional; conditions: ATCC 10240, 24 h

MIC [1]	MIC [2]	Activity [3]	MIC [4]	MIC [5]	MIC [6]	MIC [7]	MIC [8]	MIC [9]	MIC [10]	SMILES	MBC [1]	MFC99.5 [2]	MBC [4]	MBC [5]	MFC99.5 [6]	MFC99.5 [7]	MBC [8]	MFC99.5 [9]	MFC99.5 [10]	MBC [11]	other results
62.5 µM (≈ 26.9 µg/mL)	0.45 µM (≈ 0.194 µg/mL)	99.3%	30.6 µM (≈ 13.2 µg/mL)	62.5 µM (≈ 26.9 µg/mL)	2.9 µM (≈ 1.25 µg/mL)	2.9 µM (≈ 1.25 µg/mL)	62.5 µM (≈ 26.9 µg/mL)	0.3 µM (≈ 0.129 µg/mL)	0.3 µM (≈ 0.129 µg/mL)	O=C1CSC(c2cccc(Cl)c2)N1c1nc(C23CC4CC(CC(C4)C2)C3)cs1 (centres undefined)	125 µM (≈ 53.9 µg/mL)	0.07 ×10⁻² umol/ml	62.5 µM (≈ 26.9 µg/mL)	125 µM (≈ 53.9 µg/mL)	0.58 ×10⁻² umol/ml	0.58 ×10⁻² umol/ml	125 µM (≈ 53.9 µg/mL)	0.07 ×10⁻² umol/ml	0.045 ×10⁻² umol/ml	62.5 µM (≈ 26.9 µg/mL)	MIC [11]: 16.2 µM (≈ 7 µg/mL); MFC99.5 [12]: 1.16 ×10⁻² umol/ml; MIC [12]: 5.8 µM (≈ 2.5 µg/mL); MBC [13]: 125 µM (≈ 53.9 µg/mL); MIC [13]: 62.5 µM (≈ 26.9 µg/mL); MBC [14]: 62.5 µM (≈ 26.9 µg/mL); MIC [14]: 30.6 µM (≈ 13.2 µg/mL); MFC99.5 [15]: 0.58 ×10⁻² umol/ml; MIC [15]: 2.9 µM (≈ 1.25 µg/mL); MFC99.5 [16]: 0.07 ×10⁻² umol/ml; MIC [16]: 0.3 µM (≈ 0.129 µg/mL); MBC [17]: 125 µM (≈ 53.9 µg/mL); MIC [17]: 62.5 µM (≈ 26.9 µg/mL)
219 µM (≈ 100 µg/mL)	110 µM (≈ 50 µg/mL)	80.7%	438 µM (≈ 200 µg/mL)	219 µM (≈ 100 µg/mL)	219 µM (≈ 100 µg/mL)	219 µM (≈ 100 µg/mL)	438 µM (≈ 200 µg/mL)	219 µM (≈ 100 µg/mL)	219 µM (≈ 100 µg/mL)	COc1ccc(OC)c(C2SCC(=O)N2c2nc(C34CC5CC(CC(C5)C3)C4)cs2)c1 (centres undefined)	438 µM (≈ 200 µg/mL)	32.85 ×10⁻² umol/ml	657 µM (≈ 300 µg/mL)	438 µM (≈ 200 µg/mL)	43.8 ×10⁻² umol/ml	32.85 ×10⁻² umol/ml	438 µM (≈ 200 µg/mL)	32.85 ×10⁻² umol/ml	21.9 ×10⁻² umol/ml	438 µM (≈ 200 µg/mL)	MIC [11]: 219 µM (≈ 100 µg/mL); MFC99.5 [12]: 109.5 ×10⁻² umol/ml; MIC [12]: 876 µM (≈ 400 µg/mL); MBC [13]: 657 µM (≈ 300 µg/mL); MIC [13]: 438 µM (≈ 200 µg/mL); MBC [14]: 438 µM (≈ 200 µg/mL); MIC [14]: 219 µM (≈ 100 µg/mL); MFC99.5 [15]: 43.8 ×10⁻² umol/ml; MIC [15]: 219 µM (≈ 100 µg/mL); MFC99.5 [16]: 87.6 ×10⁻² umol/ml; MIC [16]: 219 µM (≈ 100 µg/mL); MBC [17]: 438 µM (≈ 200 µg/mL); MIC [17]: 219 µM (≈ 100 µg/mL)
62.5 µM (≈ 26.9 µg/mL)	0.5 µM (≈ 0.216 µg/mL)	99%	16.2 µM (≈ 7 µg/mL)	62.5 µM (≈ 26.9 µg/mL)	0.45 µM (≈ 0.194 µg/mL)	0.45 µM (≈ 0.194 µg/mL)	16.2 µM (≈ 7 µg/mL)	0.5 µM (≈ 0.216 µg/mL)	0.3 µM (≈ 0.129 µg/mL)	O=C1CSC(c2ccc(Cl)cc2)N1c1nc(C23CC4CC(CC(C4)C2)C3)cs1 (centres undefined)	125 µM (≈ 53.9 µg/mL)	0.07 ×10⁻² umol/ml	62.5 µM (≈ 26.9 µg/mL)	125 µM (≈ 53.9 µg/mL)	0.07 ×10⁻² umol/ml	0.07 ×10⁻² umol/ml	125 µM (≈ 53.9 µg/mL)	0.07 ×10⁻² umol/ml	0.05 ×10⁻² umol/ml	62.5 µM (≈ 26.9 µg/mL)	MIC [11]: 16.2 µM (≈ 7 µg/mL); MFC99.5 [12]: 1.16 ×10⁻² umol/ml; MIC [12]: 5.8 µM (≈ 2.5 µg/mL); MBC [13]: 125 µM (≈ 53.9 µg/mL); MIC [13]: 62.5 µM (≈ 26.9 µg/mL); MBC [14]: 62.5 µM (≈ 26.9 µg/mL); MIC [14]: 16.2 µM (≈ 7 µg/mL); MFC99.5 [15]: 0.07 ×10⁻² umol/ml; MIC [15]: 0.3 µM (≈ 0.129 µg/mL); MFC99.5 [16]: 0.07 ×10⁻² umol/ml; MIC [16]: 0.45 µM (≈ 0.194 µg/mL); MBC [17]: 62.5 µM (≈ 26.9 µg/mL); MIC [17]: 30.6 µM (≈ 13.2 µg/mL)
